According to paper PMC7606179 (Acta Pharmaceutica Sinica. B, 2020):
Entries after “also recorded” stand apart in the source; their conditions may differ.

Key:
[1] = tested on: PR8 resistant recombinant virus with H274Y mutation in MDCK cells; type: cell-based
[2] = molecular target: Oseltamivir resistant (with H274Y mutation) neuraminidase (Influenza A virus, UniProt P03468, H260Y); type: biochemical, recombinant PR8 virus with H274Y mutation

SMILES | NA inhibitory activity on oseltamivir resistant NA [2] | also measured
CCOC(=O)C1=C[C@@H](OC(CC)CC)[C@H](NC(C)=O)[C@@H](N)C1 [Oseltamivir] | – | Anti-virus effect on resistant virus with NA H274Y mutation in MDCK cells [1]: didn't show obvious anti-virus effects
O=c1oc2c(O)c(O)cc3c(=O)oc4c(O)c(O)cc1c4c23 [B21, Ellagic acid] | can obviously inhibit NA activities | –
COC(=O)C1CC(=O)c2oc(=O)c3cc(O)c(O)c(O)c3c21 (stereo not shown) [B15, Methyl brevifolin carboxylate] | can obviously inhibit NA activities | –
O=C(/C=C/c1ccc(O)cc1)OC[C@H]1O[C@@H](Oc2c(-c3ccc(O)cc3)oc3cc(O)cc(O)c3c2=O)[C@H](O)[C@@H](O)[C@@H]1O [B23, Tiliroside] | – | Effect on replication of oseltamivir resistant (H274Y) PR8 virus in MDCK cells [1]: obviously reduce; also recorded: greatly reduce
